The values that follow come from PubChem BioAssay (NCI).

Values joined by “and” are separate entries in the source; they are usually repeats but may differ in a detail not shown here. Identical values can stand only once.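 48-hour exposure; five concentrations; linearly interpolated endpoints. Here, GI50 denotes the concentration required for 50% inhibition of growth. TGI is the concentration that stops growth completely.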

What all share (assay): growth of human tumour cells (NCI), 48 h
In assay [1] the test system is IGROV1 ovarian.
Assay [2] deals with MALME-3M melanoma.
The test system of assay [3] is NCI-H522 lung.
The subject of assay [4] is PC-3 prostate.
The subject of assay [5] is SF-268 CNS.
In assay [6] the test system is SF-295 CNS.
Assay [7] relates to SK-OV-3 ovarian.
Assay [8] relates to SN12C renal.
Assay [9] concerns SR leukemia.
For assay [10], the system named is SW-620 colon.

For the molecule `CN1CCN(CCCOc2cc(O)c3c(=O)cc(-c4ccccc4)oc3c2)CC1`, the GI50 in assay [1] is 24.9 µM; in [2], 20.8 µM; in [3] it was 21.6 µM; in assay [4] it was 31.4 µM; in assay [5], 20.1 µM; in assay [6], 21.1 µM. In addition, the GI50 in [7] was 19.4 µM; in assay [8], 18.9 µM; in [9], 16.9 µM; in assay [10], 19.5 µM. Moreover, the TGI in assay [1] is 95.3 µM; in assay [2], 42.6 µM; in assay [3], 47 µM; in assay [4] it was > 100 µM; in assay [5], 48.7 µM; in assay [6] it was 44.5 µM. The TGI in assay [7] was 38.4 µM; in assay [8], 41.3 µM; in assay [9], 44.6 µM; in assay [10], 42.4 µM.

In the case of `CCC1=C(CC2NCCc3ccccc32)CC2c3cc(OC)c(OC)cc3CCN2C1` (stereo not drawn), the GI50 was 4.39 µM in [1]; 3.02 µM in assay [2]; 4.22 µM in [3]; 3.48 µM in [4]; 3.13 µM in [5]; 3.73 µM in [6]. Besides, the GI50 is 4.07 µM in assay [7], 4.92 µM in assay [8], 2.86 µM in assay [9] and 3.62 µM in assay [10]. In addition, the TGI is 21.6 µM and 19 µM in assay [1]; 9.64 µM and 2.75 µM in assay [2]; 14 µM and 6.12 µM in [5]; 15 µM and 6.82 µM in assay [6]; 25.6 µM and 17.1 µM in assay [7]; 35.6 µM and 7.34 µM in [8]. Further, the TGI is 8.77 µM and 3.89 µM in assay [9]; 13.4 µM and 6.81 µM in assay [10].

Regarding `COC(=O)[C@H](Cc1cn(C)cn1)NC(=O)[C@H](Cc1ccccc1)NC(=O)Nc1cc(C(F)(F)F)cc(C(F)(F)F)c1`, the GI50 was 18.5 µM in assay [1]; 18.2 µM in assay [2]; 11.7 µM in assay [3]; 9.17 µM and 12.4 µM in assay [4]; 4.26 µM and 10.2 µM in [5]; 16.4 µM in [6]. Further, the GI50 was 19.2 µM in assay [7]; 11.7 µM in assay [8]; 2.54 µM and 2.21 µM in assay [9]; 14.5 µM in assay [10]. Moreover, the TGI in [1] came out at 37.2 µM; in [2] it was 34.2 µM; in [3], 24.7 µM; in assay [4] it was 25.8 µM; in assay [5], 23.8 µM; in assay [6], 31.5 µM. Also, the TGI is 33.3 µM in assay [7]; 24.6 µM in assay [8]; 6.07 µM and 5.05 µM in assay [9]; 30.6 µM in [10].

As to `C=C1C(=O)O[C@H]2C[C@@H]1C(=O)CC(C)CCCC(C)=CCC[C@@]2(C)O` (stereo partly drawn), the TGI in assay [1], in assay [2], in assay [3], in assay [4], in assay [5] and in [6] was > 25 µM in each case. The TGI in assay [7], in assay [8], in assay [9] and in assay [10] was > 25 µM each time.
